From patent publication US12448399B2, “Cereblon-based KRAS degrading PROTACs and uses related thereto” (Arvinas Operations, Inc., priority 2023, dated 2025)

Molecular target: T1, KRas-G12D (Homo sapiens, UniProt P01116, G12D)
T1 construct: insert the HiBiT tag onto the N-terminus of one or more of the endogenous KRas alleles; host or cells: AsPC-1 HiBiT-KRasG12D knock-in clone (one tagged allele, two untagged KRasG12D alleles)
Experiment: HiBiT Degradation Assay (G12D), AsPC-1 HiBiT-KRasG12D cells, 24 hr
Type: cell-based
Conditions: for Dmax: ASPC1, AsPC-1 cells, maximum degradation observed; for DC50: AsPC-1 cells
Method in brief: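 AsPC-1 cells with CRISPR N-terminal HiBiT knock-in on one endogenous KRasG12D allele, treated 24 hr at 37° C with compound titrations in 0.5% DMSO. Lytic HiBiT luminescence normalized to DMSO, fitted to a 4-parameter model for DC50 and Dmax. Parallel alamar blue (4 hr) checked viability.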

T1 sequence (P01116 1-188 isoform P01116-2 G12D): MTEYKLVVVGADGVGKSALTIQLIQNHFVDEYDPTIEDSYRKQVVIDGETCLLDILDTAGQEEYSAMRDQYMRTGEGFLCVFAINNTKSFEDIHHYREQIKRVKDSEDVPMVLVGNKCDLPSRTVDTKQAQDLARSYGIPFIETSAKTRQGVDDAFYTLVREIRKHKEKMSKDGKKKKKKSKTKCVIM

SMILES	Dmax	DC50
C#Cc1c(F)ccc2cc(O)cc(-c3ncc4c(N5CC6CCC(C5)N6)nc(OCCN5CCC(CN6CCC(CC7CCN(c8cc(C)c9c(c8F)CN(C8CCC(=O)NC8=O)C9=O)CC7)CC6)CC5)nc4c3F)c12 (stereo not shown) [Compound 170, 3-{5-[4-({1-[(1-{2-[(4-{3,8-diazabicyclo[3.2.1]octan-3-yl}-7-(8-ethynyl-7-fluoro-3-hydroxynaphthalen-1-yl)-8-fluoropyrido[4,3-d]pyrimidin-2-yl)oxy]ethyl}piperidin-4-yl)methyl]piperidin-4-yl}methyl)piperidin-1-yl]-4-fluoro-7-methyl-1-oxo-2,3-dihydro-1H-isoindol-2-yl}piperidine-2,6-dione]	> 70%	< 5.1 µM
CCc1c(F)ccc2cc(O)cc(-c3ncc4c(N5CC6CCC(C5)N6)nc(OCCN5CCC6(CC5)CCN(CC5CCN(c7ccc8c(c7)n(C)c(=O)n8C7CCC(=O)NC7=O)CC5)CC6)nc4c3F)c12 (stereo not shown) [Compound 171, 3-(5-{4-[(9-{2-[(4-{3,8-diazabicyclo[3.2.1]octan-3-yl}-7-(8-ethyl-7-fluoro-3-hydroxynaphthalen-1-yl)-8-fluoropyrido[4,3-d]pyrimidin-2-yl)oxy]ethyl}-3,9-diazaspiro[5.5]undecan-3-yl)methyl]piperidin-1-yl}-3-methyl-2-oxo-2,3-dihydro-1H-1,3-benzodiazol-1-yl)piperidine-2,6-dione]	> 70%	< 5.1 µM
CCc1c(F)ccc2cc(O)cc(-c3ncc4c(N5CC6CCC(C5)N6)nc(OCCN5CCC(CC6CCN(CC7CCN(c8cccc9c8n(C)c(=O)n9C8CCC(=O)NC8=O)CC7)CC6)CC5)nc4c3F)c12 (stereo not shown) [Compound 172, 3-{4-[4-({4-[(1-{2-[(4-{3,8-diazabicyclo[3.2.1]octan-3-yl}-7-(8-ethyl-7-fluoro-3-hydroxynaphthalen-1-yl)-8-fluoropyrido[4,3-d]pyrimidin-2-yl)oxy]ethyl}piperidin-4-yl)methyl]piperidin-1-yl}methyl)piperidin-1-yl]-3-methyl-2-oxo-2,3-dihydro-1H-1,3-benzodiazol-1-yl}piperidine-2,6-dione]	> 70%	< 5.1 µM
C#Cc1c(F)ccc2cc(O)cc(-c3ncc4c(N5CC6CCC(C5)N6)nc(OCCN5CCN(CC6CCN(CC7CCN(c8ccc9c(c8)n(C)c(=O)n9C8CCC(=O)NC8=O)CC7)CC6)CC5)nc4c3F)c12 (stereo not shown) [Compound 173, 3-{5-[4-({4-[(4-{2-[(4-{3,8-diazabicyclo[3.2.1]octan-3-yl}-7-(8-ethynyl-7-fluoro-3-hydroxynaphthalen-1-yl)-8-fluoropyrido[4,3-d]pyrimidin-2-yl)oxy]ethyl}piperazin-1-yl)methyl]piperidin-1-yl}methyl)piperidin-1-yl]-3-methyl-2-oxo-2,3-dihydro-1H-1,3-benzodiazol-1-yl}piperidine-2,6-dione]	> 70%	< 5.1 µM
C#Cc1c(F)ccc2cc(O)cc(-c3ncc4c(N5CC6CCC(C5)N6)nc(OCCN5CCN(CC6CCN(CC7CCN(c8ccc9c(c8F)CN(C8CCC(=O)NC8=O)C9=O)CC7)CC6)CC5(C)C)nc4c3F)c12 (stereo not shown) [Compound 174, 3-{5-[4-({4-[(4-{2-[(4-{3,8-diazabicyclo[3.2.1]octan-3-yl}-7-(8-ethynyl-7-fluoro-3-hydroxynaphthalen-1-yl)-8-fluoropyrido[4,3-d]pyrimidin-2-yl)oxy]ethyl}-3,3-dimethylpiperazin-1-yl)methyl]piperidin-1-yl}methyl)piperidin-1-yl]-4-fluoro-1-oxo-2,3-dihydro-1H-isoindol-2-yl}piperidine-2,6-dione]	> 70%	< 5.1 µM
C#Cc1c(F)ccc2cc(O)cc(-c3ncc4c(N5CC6CCC(C5)N6)nc(OCCN5CCC(CC6CCN(c7ccc8c(c7)n(C(C)C)c(=O)n8C7CCC(=O)NC7=O)CC6)CC5)nc4c3F)c12 (stereo not shown) [Compound 175, 3-(5-{4-[(1-{2-[(4-{3,8-diazabicyclo[3.2.1]octan-3-yl}-7-(8-ethynyl-7-fluoro-3-hydroxynaphthalen-1-yl)-8-fluoropyrido[4,3-d]pyrimidin-2-yl)oxy]ethyl}piperidin-4-yl)methyl]piperidin-1-yl}-2-oxo-3-(propan-2-yl)-2,3-dihydro-1H-1,3-benzodiazol-1-yl)piperidine-2,6-dione]	> 70%	< 5.1 µM
C#Cc1c(F)ccc2cc(O)cc(-c3ncc4c(N5CC6CCC(C5)N6)nc(OC[C@@H]5CC[C@@H](CN6CCN(c7ccc8c(c7)n(C(C)C)c(=O)n8C7CCC(=O)NC7=O)CC6)N5C)nc4c3F)c12 (stereo partly drawn) [Compound 176, 3-[5-(4-{[(2S,5S)-5-{[(4-{3,8-diazabicyclo[3.2.1]octan-3-yl}-7-(8-ethynyl-7-fluoro-3-hydroxynaphthalen-1-yl)-8-fluoropyrido[4,3-d]pyrimidin-2-yl)oxy]methyl}-1-methylpyrrolidin-2-yl]methyl}piperazin-1-yl)-2-oxo-3-(propan-2-yl)-2,3-dihydro-1H-1,3-benzodiazol-1-yl]piperidine-2,6-dione]	> 70%	< 5.1 µM
CCc1c(F)ccc2cc(O)cc(-c3ncc4c(N5CC6CCC(C5)N6)nc(OC[C@@H]5C[C@@H](OC6CCN(CC7CCN(c8ccc9c(c8Cl)CN(C8CCC(=O)NC8=O)C9=O)CC7)CC6)CN5C)nc4c3F)c12 (stereo partly drawn) [Compound 177, 3-(4-chloro-5-{4-[(4-{[(3R,5S)-5-{[(4-{3,8-diazabicyclo[3.2.1]octan-3-yl}-7-(8-ethyl-7-fluoro-3-hydroxynaphthalen-1-yl)-8-fluoropyrido[4,3-d]pyrimidin-2-yl)oxy]methyl}-1-methylpyrrolidin-3-yl]oxy}piperidin-1-yl)methyl]piperidin-1-yl}-1-oxo-2,3-dihydro-1H-isoindol-2-yl)piperidine-2,6-dione]	> 70%	< 5.1 µM
CCc1c(F)ccc2cc(O)cc(-c3ncc4c(N5CC6CCC(C5)N6)nc(OC[C@@H]5C[C@@H](OC6CCN(CC7CCN(c8ccc9c(c8F)CN(C8CCC(=O)NC8=O)C9=O)CC7)CC6)CN5C)nc4c3F)c12 (stereo partly drawn) [Compound 178, 3-(5-{4-[(4-{[(3R,5S)-5-{[(4-{3,8-diazabicyclo[3.2.1]octan-3-yl}-7-(8-ethyl-7-fluoro-3-hydroxynaphthalen-1-yl)-8-fluoropyrido[4,3-d]pyrimidin-2-yl)oxy]methyl}-1-methylpyrrolidin-3-yl]oxy}piperidin-1-yl)methyl]piperidin-1-yl}-4-fluoro-1-oxo-2,3-dihydro-1H-isoindol-2-yl)piperidine-2,6-dione]	> 70%	< 5.1 µM
CCc1c(F)ccc2cc(O)cc(-c3ncc4c(N5CC6CCC(C5)N6)nc(OCCN5CCC(C)(CC6CCN(CC7CCN(c8ccc9c(c8)n(C)c(=O)n9C8CCC(=O)NC8=O)CC7)CC6)CC5)nc4c3F)c12 (stereo not shown) [Compound 179, 3-{5-[4-({4-[(1-{2-[(4-{3,8-diazabicyclo[3.2.1]octan-3-yl}-7-(8-ethyl-7-fluoro-3-hydroxynaphthalen-1-yl)-8-fluoropyrido[4,3-d]pyrimidin-2-yl)oxy]ethyl}-4-methylpiperidin-4-yl)methyl]piperidin-1-yl}methyl)piperidin-1-yl]-3-methyl-2-oxo-2,3-dihydro-1H-1,3-benzodiazol-1-yl}piperidine-2,6-dione]	> 70%	< 5.1 µM
CCc1c(F)ccc2cc(O)cc(-c3ncc4c(N5CC6CCC(C5)N6)nc(OCCN5CCC(C)(CN6CCN(CC7CCN(c8ccc9c(c8)n(C)c(=O)n9C8CCC(=O)NC8=O)CC7)CC6)CC5)nc4c3F)c12 (stereo not shown) [Compound 180, 3-{5-[4-({4-[(1-{2-[(4-{3,8-diazabicyclo[3.2.1]octan-3-yl}-7-(8-ethyl-7-fluoro-3-hydroxynaphthalen-1-yl)-8-fluoropyrido[4,3-d]pyrimidin-2-yl)oxy]ethyl}-4-methylpiperidin-4-yl)methyl]piperazin-1-yl}methyl)piperidin-1-yl]-3-methyl-2-oxo-2,3-dihydro-1H-1,3-benzodiazol-1-yl}piperidine-2,6-dione]	> 70%	< 5.1 µM
CCc1c(F)ccc2cc(O)cc(-c3ncc4c(N5CC6CCC(C5)N6)nc(OCCN5CCC(F)(CN6CCN(CC7CCN(c8ccc9c(c8)n(C)c(=O)n9C8CCC(=O)NC8=O)CC7)CC6)CC5)nc4c3F)c12 (stereo not shown) [Compound 181, 3-{5-[4-({4-[(1-{2-[(4-{3,8-diazabicyclo[3.2.1]octan-3-yl}-7-(8-ethyl-7-fluoro-3-hydroxynaphthalen-1-yl)-8-fluoropyrido[4,3-d]pyrimidin-2-yl)oxy]ethyl}-4-fluoropiperidin-4-yl)methyl]piperazin-1-yl}methyl)piperidin-1-yl]-3-methyl-2-oxo-2,3-dihydro-1H-1,3-benzodiazol-1-yl}piperidine-2,6-dione]	> 70%	< 5.1 µM
CCc1c(F)ccc2cc(O)cc(-c3ncc4c(N5CC6CCC(C5)N6)nc(OCCN5CCC(F)(CC6CCN(CC7CCN(c8ccc9c(c8)n(C)c(=O)n9C8CCC(=O)NC8=O)CC7)CC6)CC5)nc4c3F)c12 (stereo not shown) [Compound 182, 3-{5-[4-({4-[(1-{2-[(4-{3,8-diazabicyclo[3.2.1]octan-3-yl}-7-(8-ethyl-7-fluoro-3-hydroxynaphthalen-1-yl)-8-fluoropyrido[4,3-d]pyrimidin-2-yl)oxy]ethyl}-4-fluoropiperidin-4-yl)methyl]piperidin-1-yl}methyl)piperidin-1-yl]-3-methyl-2-oxo-2,3-dihydro-1H-1,3-benzodiazol-1-yl}piperidine-2,6-dione]	> 70%	< 5.1 µM
C#Cc1c(F)ccc2cc(O)cc(-c3ncc4c(N5CC6CCC(C5)N6)nc(OCCN5CCC(F)(CN6CCC(CC7CCN(c8ccc9c(c8)n(C)c(=O)n9C8CCC(=O)NC8=O)CC7)CC6)CC5)nc4c3F)c12 (stereo not shown) [Compound 183, 3-{5-[4-({1-[(1-{2-[(4-{3,8-diazabicyclo[3.2.1]octan-3-yl}-7-(8-ethynyl-7-fluoro-3-hydroxynaphthalen-1-yl)-8-fluoropyrido[4,3-d]pyrimidin-2-yl)oxy]ethyl}-4-fluoropiperidin-4-yl)methyl]piperidin-4-yl}methyl)piperidin-1-yl]-3-methyl-2-oxo-2,3-dihydro-1H-1,3-benzodiazol-1-yl}piperidine-2,6-dione]	> 70%	< 5.1 µM
